Data reported in US3984548A, “Substituted pyrido[1,2,3,-de]-1,4-benzoxazines as bactericides” (Riker Laboratories, Inc., priority 1974, dated 1976).

What was measured:
Assay type in all cases: cell-based
Design in all cases: key: +: active; -: inactive
Conditions in all cases: agar plates, 1 to 100 milligrams/liter
[1] = system: Mima polymorpha; assay: standard plate dilution method, Mima polymorpha
Protocol: (§1) The culture medium employed permits susceptibility testing of fastidious microorganisms towards antibiotics, sulfonamides and other chemotherapeutic agents. Tryptone soy agar (oxoid) of the following composition is the culture medium. In the test procedure, the amount of a compound required to give complete inhibition or no inhibition of the microbial growth on the agar plates was determined. The compound selected for evaluation is added to the agar medium to give concentrations of one, ten and one hundred milligrams per liter. A series of plates with these concentrations is prepared. Plates containing agar alone are included as controls. Ten percent horse serum is added to one series of such plates. Aliquots of broth culture of each of nine species of microorganisms are innoculated onto the agar plates containing the various compound concentrations and onto the control plates. The plates are incubated at 37° C. in a 10 percent carbon dioxide atmosphere for 18 to 25 hours. The microbial growth on each plate is read visually, and minimal inhibitory concentrations are recorded.

[2] = system: Streptococcus Sp; assay: standard plate dilution method, Streptococcus sp.
Protocol: as §1

[3] = system: Pseudmonas aeruginosa; assay: standard plate dilution method, Pseudomonas aeruginosa
Protocol: as §1

[4] = system: Bacillus Subtilus; assay: standard plate dilution method, Bacillus subtilus
Protocol: as §1

[5] = system: Staphylococcus aureus; assay: standard plate dilution method, Staphylococcus aureus
Protocol: as §1

[6] = system: Herellea vaginicola; assay: standard plate dilution method, Herellea vaginicola
Protocol: as §1

[7] = system: Escherichia coli; assay: standard plate dilution method, Escherichia coli
Protocol: as §1

| SMILES | Microorganism MP (growth inhibition) [1] | Microorganism SS (growth inhibition) [2] | Microorganism PA (growth inhibition) [3] | Microorganism BS (growth inhibition) [4] | Microorganism SA (growth inhibition) [5] | Microorganism HV (growth inhibition) [6] | Microorganism EC (growth inhibition) [7] |
| --- | --- | --- | --- | --- | --- | --- | --- |
| Cc1ccc2c(=O)c(C(=O)O)cn3c2c1OCC3C (stereo not drawn) [Example 39 (acid)] | + | + | + | + | - | + | + |
| CCOC(=O)c1cn2c3c(c(C)ccc3c1=O)OCC2C (stereo not drawn) [Example 39 (ester)] | - | + | + | - | - | - | + |
| Cc1cc2c3c(c1C)c(=O)c(C(=O)O)cn3C(C)CO2 (stereo not drawn) [Example 40 (acid)] | + | + | + | + | + | + | + |
| Cc1cc(Cl)c2c(=O)c(C(=O)O)cn3c2c1OCC3C (stereo not drawn) [Example 41 (acid)] | - | - | - | + | + | + | + |
| CCOC(=O)c1cn2c3c(c(C)cc(Cl)c3c1=O)OCC2C (stereo not drawn) [Example 41 (ester)] | - | - | - | + | + | + | + |
| Cc1cc(C)c2c(=O)c(C(=O)O)cn3c2c1OCC3C (stereo not drawn) [Example 42 (acid)] | + | + | + | + | + | + | + |
| CCOC(=O)c1cn2c3c(c(C)cc(C)c3c1=O)OCC2C (stereo not drawn) [Example 42 (ester)] | - | - | - | + | - | - | - |
| O=C(O)c1cn2c3c(cc(F)cc3c1=O)OCC2 [Example 43 (acid)] | - | + | - | + | + | + | + |
| CC1COc2ccc([N+](=O)[O-])c3c(=O)c(C(=O)O)cn1c23 (stereo not drawn) [Example 44, 2,3-dihydro-3-methyl-8-nitro-7-oxo-7H-pyrido[1,2,3-de]-1,4-benzoxazine-6-carboxylic acid] | - | - | - | + | + | + | + |
